From publication PMC6458995, “MAP4K4 Inhibition Promotes Survival of Human Stem Cell-Derived Cardiomyocytes and Reduces Infarct Size In Vivo” (Cell Stem Cell, 2019)
pIC50: −log10 of the molar value.

Experiments:
ABL1 = ABL1 (Homo sapiens, UniProt P00519); assay: HTRF Transcreener ADP kinase assay; format: biochemical; details: for pIC50: HTRF Transcreener ADP assay
Method: (§1) MAP4K4 kinase activity was monitored using the CisBio HTRF Transcreener ADP assay, a competitive immunoassay with a reproducible Z’ > 0.6. In the detection step, endogenous ADP and d2-labeled ADP compete for binding an anti-ADP monoclonal antibody labeled with Eu^3+ cryptate. A ratiometric fluorescent readout is used at 665 and 620 nm. […] Assays were run in Greiner low volume plates with a final reaction volume of 10 μl. Percent inhibition was calculated from 100% activity of MAP4K4 (DMSO only) and 0% activity (no enzyme added). Data were either reported as % inhibition at a single dose or as pIC50 values derived from dose response curves (pIC50 = -log[IC50]).
(§2) Kinase selectivity profiling was performed by the International Centre for Kinase Profiling, MRC Protein Phosphorylation and Ubiquitylation Unit (141 kinases; Premier Screen, http://www.kinase-screen.mrc.ac.uk), using a [γ-^33P]ATP filter binding assay ([Bain et al., 2007]). Compounds were screened at 1 μM. For key hits, pIC50 values were then determined by HTRF as above. More complete kinome profiling was performed by Reaction Biology (376 kinases). Stability in mouse and human liver microsomes was determined by Cyprotex.

FLT3 = FLT3 (Homo sapiens, UniProt P36888); assay: HTRF Transcreener ADP kinase assay; format: biochemical
Sequence of FLT3 (P36888 27-993): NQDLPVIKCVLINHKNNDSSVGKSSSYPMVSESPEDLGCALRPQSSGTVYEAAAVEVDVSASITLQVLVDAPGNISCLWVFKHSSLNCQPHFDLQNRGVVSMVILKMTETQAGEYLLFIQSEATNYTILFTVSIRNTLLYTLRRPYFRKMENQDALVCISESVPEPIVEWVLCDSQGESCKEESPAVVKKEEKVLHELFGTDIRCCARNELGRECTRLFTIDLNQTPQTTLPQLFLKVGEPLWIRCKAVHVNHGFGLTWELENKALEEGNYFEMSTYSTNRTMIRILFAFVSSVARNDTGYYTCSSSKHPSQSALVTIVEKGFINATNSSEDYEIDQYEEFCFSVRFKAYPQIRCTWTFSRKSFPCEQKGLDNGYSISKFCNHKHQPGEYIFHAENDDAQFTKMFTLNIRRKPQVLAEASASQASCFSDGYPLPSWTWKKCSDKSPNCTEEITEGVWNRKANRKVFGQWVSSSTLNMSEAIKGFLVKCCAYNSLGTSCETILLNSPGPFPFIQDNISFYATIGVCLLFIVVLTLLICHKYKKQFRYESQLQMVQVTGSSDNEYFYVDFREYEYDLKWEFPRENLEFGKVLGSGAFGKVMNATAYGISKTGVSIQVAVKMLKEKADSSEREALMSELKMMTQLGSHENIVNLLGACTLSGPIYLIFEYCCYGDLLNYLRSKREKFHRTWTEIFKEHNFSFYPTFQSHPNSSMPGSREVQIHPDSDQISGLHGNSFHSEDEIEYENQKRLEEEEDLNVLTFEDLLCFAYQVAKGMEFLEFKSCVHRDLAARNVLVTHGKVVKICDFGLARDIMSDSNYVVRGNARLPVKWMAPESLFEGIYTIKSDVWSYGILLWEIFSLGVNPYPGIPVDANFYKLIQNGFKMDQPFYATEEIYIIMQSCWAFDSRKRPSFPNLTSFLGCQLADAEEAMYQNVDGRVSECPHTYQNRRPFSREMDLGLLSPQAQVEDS
Method: as §1, §2

GSK3β = GSK3β (Homo sapiens, UniProt P49841); assay: HTRF Transcreener ADP kinase assay; format: biochemical; details: for pIC50: HTRF Transcreener ADP assay
Sequence of GSK3β (P49841 whole entry): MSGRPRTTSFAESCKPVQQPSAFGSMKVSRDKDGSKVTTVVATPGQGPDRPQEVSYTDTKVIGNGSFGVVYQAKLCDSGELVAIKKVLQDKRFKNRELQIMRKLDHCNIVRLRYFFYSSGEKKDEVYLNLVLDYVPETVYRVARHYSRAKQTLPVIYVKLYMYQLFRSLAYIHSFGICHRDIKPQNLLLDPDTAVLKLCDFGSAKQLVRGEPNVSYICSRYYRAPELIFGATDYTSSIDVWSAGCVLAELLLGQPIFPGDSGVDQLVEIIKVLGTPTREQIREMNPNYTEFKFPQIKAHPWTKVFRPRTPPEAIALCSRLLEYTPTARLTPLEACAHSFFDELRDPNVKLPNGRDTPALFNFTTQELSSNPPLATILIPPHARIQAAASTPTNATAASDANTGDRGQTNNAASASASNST
Method: as §1, §2

vCor.4U cardiomyocytes = assay: Human cardiac troponin I release (AlphaLISA) after oxidative stress; format: cell-based; details: 10 μM compound, up to 200 μM H2O2 or 45 μM menadione
Method: For cell-based dose-response experiments, MAP4K4 inhibitors were prepared in 96-well polypropylene plates as serial dilutions in DMSO of 10 mM stock solutions. To a sterile 96-well intermediate plate, 1 μl of each well was added to 99 μl of medium, the samples were mixed, and 5 μl well^-1 from the intermediate plate were transferred to the cultured cells (final concentration, 0.1% DMSO; final top concentration of inhibitor, 10 μM). Assay plates were gently centrifuged then incubated for 1 hr at 37°C. The death triggers menadione, H2O2 and doxorubicin were prepared fresh on the day of treatment at 10x the final concentrations and 5 μl well^-1 were added as appropriate. Assay plates were gently centrifuged and then incubated at 37°C for the duration of treatment.
Aliquots of medium collected after cells’ treatment with death signals and MAP4K4 inhibitors were incubated at room temperature with AlphaLISA human cardiac troponin I detection reagents (PerkinElmer): sequentially, anti-Troponin I acceptor beads for 1 hr, biotinylated antibody to troponin I for 1hr, and streptavidin (SA)-coated donor beads for 30 min. The AlphaLISA signal was acquired using the Pherastar Plus plate reader. All detection reagents were diluted in 1X AlphaLISA Immunoassay Buffer and a serially diluted analyte standard was used to quantitate the concentration of human cardiac troponin I (pg ml^-1).

Oral PK = format: in vivo, female CD-1 mice; details: for AUC(0-inf) / Cmax / Tmax / half-life: female, CD-1, mouse, mice, plasma
Method: In vivo pharmacokinetic profiling was performed in female CD-1 mice, using 3 animals per time point. First, 30% w/v Kleptose as excipient was dissolved in water and vortexed gently for several min. Next, 30 mg of the test compound was dissolved into 0.6 mL of DMSO, for a concentration of 50 mg ml^-1, and 4.5 mL of the Kleptose solution was added to 0.5 mL of the test compound solution. A precipitate forms, which re-dissolves over 2-5 min, leaving a clear or slightly hazy solution with a final concentration of 5 mg ml^-1. The dosing solution is used as soon as practicable, vortexing immediately prior to use. This amount was sufficient formulation for 25 doses of 200 μL (20 g mouse). Compounds were administered orally at 50 mg kg^-1, with terminal blood (plasma) sampling at 10 min, 30 min, 1 h, 2.5 h, 5 h, 10 h, and 20 h.

CHK1 = molecular target: T1, CHK1 (Homo sapiens, UniProt O14757); assay: Dundee kinase panel; format: biochemical; details: for remaining activity at 1 µM: read-out: residual activity
T1 construct: lines 1-140) and Reaction Biology
T1 sequence (O14757 1-476): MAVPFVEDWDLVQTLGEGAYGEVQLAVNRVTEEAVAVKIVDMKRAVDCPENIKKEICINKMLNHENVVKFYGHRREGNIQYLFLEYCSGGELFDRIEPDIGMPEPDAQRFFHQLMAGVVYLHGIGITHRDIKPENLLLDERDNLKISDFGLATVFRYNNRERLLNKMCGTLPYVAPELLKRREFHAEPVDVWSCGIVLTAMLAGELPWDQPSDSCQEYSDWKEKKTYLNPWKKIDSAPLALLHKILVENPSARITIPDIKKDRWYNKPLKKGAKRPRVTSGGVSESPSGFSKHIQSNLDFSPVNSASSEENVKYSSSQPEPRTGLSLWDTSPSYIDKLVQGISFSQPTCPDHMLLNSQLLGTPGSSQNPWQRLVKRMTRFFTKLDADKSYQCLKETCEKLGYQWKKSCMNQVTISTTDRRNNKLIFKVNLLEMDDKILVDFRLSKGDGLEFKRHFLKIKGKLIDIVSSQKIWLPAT
Method: (§3) Compounds were screened at 1 μM. For key hits, pIC50 values were then determined by HTRF as above. […] Stability in mouse and human liver microsomes was determined by Cyprotex.

CK1γ2 = molecular target: T2, CK1γ2 (Homo sapiens, UniProt P78368); assay: Dundee kinase panel; format: biochemical; details: for remaining activity at 1 µM: read-out: residual activity
T2 construct: lines 1-140) and Reaction Biology
T2 sequence (P78368 whole entry): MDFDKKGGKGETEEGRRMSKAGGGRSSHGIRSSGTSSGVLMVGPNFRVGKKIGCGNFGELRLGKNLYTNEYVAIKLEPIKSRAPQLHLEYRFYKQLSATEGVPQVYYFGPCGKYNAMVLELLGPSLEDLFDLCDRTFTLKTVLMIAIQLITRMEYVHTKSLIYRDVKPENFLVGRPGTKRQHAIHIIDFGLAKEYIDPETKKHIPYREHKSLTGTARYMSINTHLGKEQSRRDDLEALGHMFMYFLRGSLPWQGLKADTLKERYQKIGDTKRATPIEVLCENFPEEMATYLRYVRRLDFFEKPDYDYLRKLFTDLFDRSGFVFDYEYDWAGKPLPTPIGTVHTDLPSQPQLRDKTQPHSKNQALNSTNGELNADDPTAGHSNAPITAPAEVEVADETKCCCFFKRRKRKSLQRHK
Method: as §3

MNK1 = molecular target: T3, MNK1 (Homo sapiens, UniProt Q9BUB5); assay: Dundee kinase panel; format: biochemical; details: for remaining activity at 1 µM: read-out: residual activity
T3 construct: lines 1-140) and Reaction Biology
T3 sequence (Q9BUB5 whole entry): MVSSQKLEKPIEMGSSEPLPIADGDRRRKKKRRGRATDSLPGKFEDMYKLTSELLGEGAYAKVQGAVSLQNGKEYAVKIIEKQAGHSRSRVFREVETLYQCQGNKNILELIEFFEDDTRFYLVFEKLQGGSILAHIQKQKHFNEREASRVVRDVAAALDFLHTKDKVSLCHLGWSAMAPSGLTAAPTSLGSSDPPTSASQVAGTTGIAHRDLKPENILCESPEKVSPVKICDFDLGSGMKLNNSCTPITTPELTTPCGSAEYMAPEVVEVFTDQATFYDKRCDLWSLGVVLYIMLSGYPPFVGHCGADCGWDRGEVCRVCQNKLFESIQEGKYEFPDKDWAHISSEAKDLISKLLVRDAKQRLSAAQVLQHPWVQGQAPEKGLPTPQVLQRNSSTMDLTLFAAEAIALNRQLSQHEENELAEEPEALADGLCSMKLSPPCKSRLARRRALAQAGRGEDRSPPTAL
Method: as §3

YES1 = molecular target: T4, YES1 (Homo sapiens, UniProt P07947); assay: Dundee kinase panel; format: biochemical; details: for remaining activity at 1 µM: read-out: residual activity
T4 construct: lines 1-140) and Reaction Biology
T4 sequence (P07947 whole entry): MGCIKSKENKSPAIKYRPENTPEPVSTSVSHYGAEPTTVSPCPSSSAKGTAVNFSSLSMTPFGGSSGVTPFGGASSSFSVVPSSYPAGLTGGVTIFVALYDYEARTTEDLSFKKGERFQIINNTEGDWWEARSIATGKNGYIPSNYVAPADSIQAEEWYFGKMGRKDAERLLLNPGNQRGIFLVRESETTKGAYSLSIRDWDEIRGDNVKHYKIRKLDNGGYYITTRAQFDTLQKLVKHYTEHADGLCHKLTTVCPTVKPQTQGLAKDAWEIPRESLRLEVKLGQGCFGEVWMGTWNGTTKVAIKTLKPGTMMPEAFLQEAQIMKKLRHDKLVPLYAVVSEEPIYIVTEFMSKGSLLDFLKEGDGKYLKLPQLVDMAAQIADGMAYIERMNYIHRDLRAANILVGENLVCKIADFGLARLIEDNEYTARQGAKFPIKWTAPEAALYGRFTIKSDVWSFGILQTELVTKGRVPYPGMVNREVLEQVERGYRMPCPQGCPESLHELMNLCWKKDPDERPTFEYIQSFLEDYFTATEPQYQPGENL
Method: as §3

p38a MAPK = molecular target: T5, p38a MAPK (Homo sapiens, UniProt Q16539); assay: Dundee kinase panel; format: biochemical; details: for remaining activity at 1 µM: read-out: residual activity
T5 construct: lines 1-140) and Reaction Biology
T5 sequence (Q16539 whole entry): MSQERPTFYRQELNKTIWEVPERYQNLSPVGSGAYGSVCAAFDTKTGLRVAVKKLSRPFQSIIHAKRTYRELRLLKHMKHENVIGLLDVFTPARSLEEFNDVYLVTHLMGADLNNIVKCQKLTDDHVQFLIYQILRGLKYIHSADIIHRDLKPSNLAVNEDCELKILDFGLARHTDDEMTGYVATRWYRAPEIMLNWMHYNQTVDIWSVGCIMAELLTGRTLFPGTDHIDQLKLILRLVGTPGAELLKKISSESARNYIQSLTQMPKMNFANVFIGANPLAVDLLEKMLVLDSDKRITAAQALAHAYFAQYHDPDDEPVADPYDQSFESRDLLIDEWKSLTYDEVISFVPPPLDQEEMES
Method: as §3

Sequence of ABL1 (P00519 whole entry): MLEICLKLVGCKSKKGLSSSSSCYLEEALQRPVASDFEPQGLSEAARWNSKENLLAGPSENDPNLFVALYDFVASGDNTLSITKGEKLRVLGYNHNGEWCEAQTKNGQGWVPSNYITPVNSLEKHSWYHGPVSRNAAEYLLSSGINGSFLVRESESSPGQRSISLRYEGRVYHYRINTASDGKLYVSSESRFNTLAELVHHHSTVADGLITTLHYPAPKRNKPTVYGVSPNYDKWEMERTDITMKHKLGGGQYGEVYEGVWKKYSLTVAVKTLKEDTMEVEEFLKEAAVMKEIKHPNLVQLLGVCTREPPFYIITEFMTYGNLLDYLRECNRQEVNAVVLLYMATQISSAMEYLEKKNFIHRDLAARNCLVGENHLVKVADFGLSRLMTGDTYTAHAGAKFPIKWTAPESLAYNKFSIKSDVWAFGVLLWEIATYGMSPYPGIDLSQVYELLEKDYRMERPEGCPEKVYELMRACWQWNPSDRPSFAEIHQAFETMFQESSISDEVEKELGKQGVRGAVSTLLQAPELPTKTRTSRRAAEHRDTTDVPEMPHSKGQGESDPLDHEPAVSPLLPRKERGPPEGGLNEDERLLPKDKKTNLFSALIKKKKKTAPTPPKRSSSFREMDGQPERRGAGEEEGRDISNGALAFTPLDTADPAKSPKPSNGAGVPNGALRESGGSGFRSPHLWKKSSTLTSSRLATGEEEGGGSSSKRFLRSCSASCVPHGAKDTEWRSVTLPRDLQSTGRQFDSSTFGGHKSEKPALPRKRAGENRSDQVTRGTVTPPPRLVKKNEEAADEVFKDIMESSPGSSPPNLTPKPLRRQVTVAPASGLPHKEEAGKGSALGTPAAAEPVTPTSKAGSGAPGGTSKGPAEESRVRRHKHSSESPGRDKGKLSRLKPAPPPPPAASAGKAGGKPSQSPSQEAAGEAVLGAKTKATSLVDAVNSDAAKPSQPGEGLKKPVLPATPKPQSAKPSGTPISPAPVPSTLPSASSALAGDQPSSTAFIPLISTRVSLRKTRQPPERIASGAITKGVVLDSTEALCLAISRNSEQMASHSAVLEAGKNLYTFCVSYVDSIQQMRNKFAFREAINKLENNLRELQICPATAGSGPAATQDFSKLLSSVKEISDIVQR

In the case of COCCOc1ccc(-c2cn(-c3ccccc3)c3nc[nH]c(=O)c23)cc1 [DMX-5804, 5-[4-(2-methoxy-ethoxy)-phenyl]-7-phenyl-3,7-dihydro-pyrrolo[2,3-d]pyrimidin-4-one], the pIC50 (ABL1; ABL1) was 5.80, the “Fold Selectivity” value (ABL1; ABL1 versus MAP4K4) was 560 and the “DMX-5804 vs F1386-0303” value (ABL1; ratio of fold selectivity, ABL1) was 0.65. For the same molecule, the “DMX-5804 vs F1386-0303” value (FLT3; ratio of fold selectivity) was 18.22, the “Fold Selectivity” value (GSK3β; GSK3β versus MAP4K4) was 7762 and the pIC50 (GSK3β; GSK3β) was 4.66. For the same molecule, the “DMX-5804 vs F1386-0303” value (GSK3β; ratio of fold selectivity, GSK3β) was 10.00, the “protection from death signal (human cardiac troponin release)” value (vCor.4U cardiomyocytes) was “substantiated” and the “improvement of free plasma concentration over the initial inhibitor” value (Oral PK; 50 mg kg^−1 oral dose, versus F1386-0303) was “more than 80 fold”. For the same molecule, the AUC(0-inf) (Oral PK; Oral PK (50 mg kg^−1)) was 63.7 µM·h, the Cmax (Oral PK; Oral PK (50 mg kg^−1)) was 13.8 µM and the Tmax (Oral PK; Oral PK (50 mg kg^−1)) was 1 h. The half-life (Oral PK; Oral PK (50 mg kg^−1)) was 1.8 h, the “AUCinf, DMX-5804 versus F1386-0303” value (Oral PK; ratio, Oral PK (50 mg kg^−1)) was 29.48 and the “Cmax, DMX-5804 versus F1386-0303” value (Oral PK; ratio, Oral PK (50 mg kg^−1)) was 46.94. The “Tmax, DMX-5804 versus F1386-0303” value (Oral PK; ratio, Oral PK (50 mg kg^−1)) was 1.00, the “t1/2, DMX-5804 versus F1386-0303” value (Oral PK; ratio, Oral PK (50 mg kg^−1)) was 0.49 and the remaining activity at 1 µM (CHK1) was 86%. It also gave a remaining activity at 1 µM (CK1γ2) of 103%, a remaining activity at 1 µM (MNK1) of 90% and a remaining activity at 1 µM (YES1) of 96%. The remaining activity at 1 µM (p38a MAPK) was 96%.
With Oc1ncnc2c1c(-c1ccccc1)cn2-c1ccccc1 [F1386-0303, 5,7-diphenyl-7H-pyrrolo[2,3-d]pyrimidin-4-ol] the pIC50 (ABL1; ABL1) was 4.52, the pIC50 (FLT3; HTRF Transcreener ADP assay) was 5.66 and the pIC50 (GSK3β; GSK3β) was 4.57. For the same molecule, the “protection from death signal (human cardiac troponin release)” value (vCor.4U cardiomyocytes) was “virtually complete”, the AUC(0-inf) (Oral PK; Oral PK (50 mg kg^−1)) was 2.16 µM·h and the Cmax (Oral PK; Oral PK (50 mg kg^−1)) was 0.295 µM. It also gave a Tmax (Oral PK; Oral PK (50 mg kg^−1)) of 1 h, a half-life (Oral PK; Oral PK (50 mg kg^−1)) of 3.7 h and a remaining activity at 1 µM (CHK1) of 98%. For the same molecule, the remaining activity at 1 µM (CK1γ2) was 106%, the remaining activity at 1 µM (MNK1) was 102% and the remaining activity at 1 µM (YES1) was 85%. For the same molecule, the remaining activity at 1 µM (p38a MAPK) was 78%.
Molecule Nc1ncc(C(=O)NC2CN(C(=O)C3CC3)C2)c2ccc(-c3cccc(F)c3)nc12 [GNE-495] has a residual activity (CHK1; 1 μM) of 93%, a residual activity (CK1γ2; 1 μM) of 107% and a residual activity (MNK1; 1 μM) of 53%. It also gave a residual activity (YES1; 1 μM) of 53% and a residual activity (p38a MAPK; 1 μM) of 95%.
With O=C1Nc2ccc(I)cc2/C1=C/c1cc(Br)c(O)c(Br)c1 [GW5074] the remaining activity at 1 µM (CHK1) was 33%, the remaining activity at 1 µM (CK1γ2) was 68% and the remaining activity at 1 µM (MNK1) was 82%. For the same molecule, the remaining activity at 1 µM (YES1) was 93% and the remaining activity at 1 µM (p38a MAPK) was 49%.
Work on O=C1Cc2c([nH]c3ccc(Br)cc23)-c2ccccc2N1 [Kenpaullone] yielded a remaining activity at 1 µM (CHK1) of 68%, a remaining activity at 1 µM (CK1γ2) of 81% and a remaining activity at 1 µM (MNK1) of 91%. For the same molecule, the remaining activity at 1 µM (YES1) was 100% and the remaining activity at 1 µM (p38a MAPK) was 94%.
